Among the data in ChEMBL document CHEMBL3507680, “University of Dundee, Gates Library screen for HepG2 cell viability” are cytotoxicity values, retold here.

This series in a line: Human HepG2 cell viability assay in 384 well format. Set-up: dose 125 nL, time 70.5 hour; cytotoxicity at 70.5 h: concentration not given beside the values. To be noted: HepG2 cells, read-out: Inhibition. Type of series: toxicity, cell-based.

As to `CN(CCn1cncc1-c1cnc(N2CCOCC2)nc1)C1CCCC1`, the cytotoxicity at 70.5 h is -5.17%.

For the compound `O=S(=O)(c1cn[nH]c1)N1CCCC(O)(CN2CCOCC2)CC1` (stereo not drawn), the cytotoxicity at 70.5 h is -3.34%.

For `Cc1c(CN2Cc3nccn3CC2c2ccccc2)cnn1C` (stereo not drawn), the cytotoxicity at 70.5 h is -4.09%.

Take `Cc1noc(C)c1C(=O)N[C@@H]1CCC[C@@H](Oc2ccccc2)[C@@H]1O`: the cytotoxicity at 70.5 h was -1.7%.

Turning to `CC(C)c1cc(C(=O)NCCc2nc(-c3cccnc3)n[nH]2)[nH]n1`, the cytotoxicity at 70.5 h is 11.1%.

`COc1ccc(C2CN(c3ncccn3)CCN2C(C)=O)cc1` (stereo not drawn): the cytotoxicity at 70.5 h is -5.51%.

Regarding `Cc1nccn1-c1nccnc1C1CCCN(C2CCCC2)C1` (stereo not drawn), the cytotoxicity at 70.5 h was 14.2%.

Consider `Cc1cccc(Nc2noc3c2CN(C(=O)c2ccn(C)n2)CC3)c1C`, for which the cytotoxicity at 70.5 h worked out at 3.73%.

`Cc1cccc(C)c1Nc1noc2c1CN(C(=O)c1c[nH]nc1C)CC2`: the cytotoxicity at 70.5 h stood at 12.8%.

With `COCC(=O)NCc1ccc(-c2ncncc2C(=O)N(C)C)cc1`, the cytotoxicity at 70.5 h was -2.25%.

In the case of `c1cc(CN2CCC[C@@H](Cn3nnc(-c4cnccn4)n3)C2)ccn1`, the cytotoxicity at 70.5 h is -2.89%.

Consider `Cn1cc(CN2CCC(c3ncc(Cl)cc3S(C)(=O)=O)CC2)cn1`, for which the cytotoxicity at 70.5 h was -6.32%.

On to `CN1C[C@]2(CC[C@@H](C(=O)N3CCOCC3)CC2)Oc2ccccc2C1=O`, for which the cytotoxicity at 70.5 h was -5.13%.

Consider `CC(C)NC(=O)[C@H]1CN(Cc2ccccc2)C[C@@H]1C(=O)c1ccccc1`, for which the cytotoxicity at 70.5 h was -1.04%.

`O=C(O)[C@H]1CN(Cc2ccccc2)C[C@@H]1C(=O)c1ccccc1`: the cytotoxicity at 70.5 h was -3.77%.

`O=C(c1cc(C2CC2)n[nH]1)N1C[C@H]2CC[C@](O)(c3ccccc3F)[C@H]2C1`: the cytotoxicity at 70.5 h is -2.83%.

As for `Cc1cnc(C(=O)N2CCN(c3ncc4c(n3)CCOC4)CC2)cn1`, the cytotoxicity at 70.5 h is -1.26%.

With `CCNC(=O)[C@@H]1CN(Cc2ccccc2)C[C@H]1C(=O)c1ccc(F)cc1`, the cytotoxicity at 70.5 h was -0.813%.

As for `COc1ccccc1OCCN(C)Cc1c(C2CC2)[nH]c2ncccc12`, the cytotoxicity at 70.5 h turned out to be 20.9%.

On to `CN(CCc1ccccc1)Cc1c(C2CCOCC2)[nH]c2ncccc12`, for which the cytotoxicity at 70.5 h is -2.01%.

With `CC(C)NC(=O)C1(Cc2ccccc2-c2ccccc2)CCCNC1` (stereo not drawn), the cytotoxicity at 70.5 h is -1.97%.

As for `Cc1cccc(CN2CCOCC2c2[nH]ncc2C)n1` (stereo not drawn), the cytotoxicity at 70.5 h was -2.39%.

Regarding `CN1CCCC1CCNC(=O)c1ccccc1-n1cnc(CN)c1` (stereo not drawn), the cytotoxicity at 70.5 h came out at 0.899%.

For `Cc1nc(CC(=O)N2CCc3nc(-c4cnccn4)nc(O)c3C2)cs1`, the cytotoxicity at 70.5 h was found to be 12.3%.

With `O=C(NC(Cc1ccsc1)c1nccs1)C1CC1` (stereo not drawn), the cytotoxicity at 70.5 h is -6.11%.

On to `O=C1NCC2(CCCN(Cc3cccnc3)C2)Oc2ccccc21` (stereo not drawn), for which the cytotoxicity at 70.5 h is -7.07%.

For `C=Cc1ccc(CN2CCCC3(CNC(=O)c4ccccc4O3)C2)cc1` (stereo not drawn), the cytotoxicity at 70.5 h came out at 8.95%.

Regarding `Cn1nc(C2CCN(C(=O)c3cccs3)CC2)c2cccnc21`, the cytotoxicity at 70.5 h is -4.94%.

As to `COc1cccc(CC(=O)N2CCCC(c3n[nH]c4nccnc34)C2)c1` (stereo not drawn), the cytotoxicity at 70.5 h was -10.4%.

For the compound `Fc1cccc(Cl)c1CN1CCC(c2n[nH]c3ncccc23)CC1`, the cytotoxicity at 70.5 h stood at 13.7%.

`Cc1ccc(CN2CCCC(c3nn(C)c4nccnc34)C2)s1` (stereo not drawn): the cytotoxicity at 70.5 h turned out to be 9.04%.

Regarding `O=C(Cc1ccsc1)N1CCC(c2n[nH]c3nccnc23)CC1`, the cytotoxicity at 70.5 h is -8.21%.

On to `Cc1csc(C(Cc2ccsc2)NC(=O)Cn2cccnc2=O)n1` (stereo not drawn), for which the cytotoxicity at 70.5 h was found to be 14.5%.

Regarding `CCc1nc2ccccc2c(=O)n1CC1(O)CCN(CC(=O)OC)CC1`, the cytotoxicity at 70.5 h was -10.9%.

Regarding `O=C(Cn1cccnc1=O)NC(Cc1ccsc1)c1cccnc1` (stereo not drawn), the cytotoxicity at 70.5 h is -6.19%.

Take `CC(C)Oc1ccc(CN2CCC(c3n[nH]c4ncccc34)CC2)cc1`: the cytotoxicity at 70.5 h stood at 21.4%.

For `COCCNC(=O)c1cc(S(=O)(=O)N2CCCCCC2)cs1`, the cytotoxicity at 70.5 h came out at 15.3%.

Take `Cc1nc(C2CCCN(C(=O)c3ccncc3)C2)c2sccn12` (stereo not drawn): the cytotoxicity at 70.5 h was 21.5%.

Regarding `Cc1cnccc1CN1Cc2ccccc2O[C@]2(CC[C@H](CO)CC2)C1`, the cytotoxicity at 70.5 h is 15.1%.

Turning to `Cc1cc(-c2cnn(CCNC(=O)CCn3cccn3)c2C2CC2)on1`, the cytotoxicity at 70.5 h is -3.81%.

As for `Cc1nc(C2CCN(C(=O)c3cnc(N(C)C)nc3)CC2)c2sccn12`, the cytotoxicity at 70.5 h worked out at 1.86%.

Consider `COCCNCc1cc2c(C)cc(C)cc2n2c(=O)n(C)nc12`, for which the cytotoxicity at 70.5 h amounted to 2.41%.

In the case of `CCOCCCNCc1cc2c(C)cc(C)cc2n2c(=O)n(C)nc12`, the cytotoxicity at 70.5 h was -0.158%.

As to `Cc1cccnc1C(Cc1ccsc1)NC(=O)Cn1cccnc1=O` (stereo not drawn), the cytotoxicity at 70.5 h was -1.07%.

Regarding `C=Cn1ncc(CN2C[C@@H]3C[C@@H](O)CN3C[C@H]2Cc2ccccc2)c1C`, the cytotoxicity at 70.5 h is -5.5%.

Regarding `CS(=O)(=O)N1CCCC(Cc2cncc(Br)c2)CC1` (stereo not drawn), the cytotoxicity at 70.5 h was -2.69%.

Take `CC(=O)N1CCCC(Cc2cncc(Br)c2)C1` (stereo not drawn): the cytotoxicity at 70.5 h is -1.98%.

Take `CN1CCC(Cc2cccc(-c3cc(F)ccc3C(=O)O)n2)CC1`: the cytotoxicity at 70.5 h is -4.18%.

On to `CC(C)N1CCC(Cc2cc(-c3cc(F)ccc3C(=O)O)ncn2)C1` (stereo not drawn), for which the cytotoxicity at 70.5 h was -3%.

`Cn1nc(C2CN(S(C)(=O)=O)C2)c2nccnc21`: the cytotoxicity at 70.5 h was 3.57%.

Turning to `CN1CCCC(CCCc2cccnc2)(C(N)=O)C1` (stereo not drawn), the cytotoxicity at 70.5 h is -3.41%.

`CC(C)Oc1ccc(C(=O)N2CC[C@H](O)[C@@H](n3ccnc3)CC2)cc1`: the cytotoxicity at 70.5 h stood at 18.5%.

On to `Cc1ncoc1C(=O)N1CC[C@@H](O)[C@@H](O)[C@H](N2CCC(F)(F)CC2)C1`, for which the cytotoxicity at 70.5 h is -2.42%.

Regarding `CNc1cccc(C2CCN(C(=O)c3cccnc3)CC2)n1`, the cytotoxicity at 70.5 h was -5.08%.

Regarding `Cc1cc(-c2ccccc2C(=O)O)nc(C2CCCN(C(C)C)C2)n1` (stereo not drawn), the cytotoxicity at 70.5 h was -3.8%.

Turning to `Cc1cc(C(=O)N2CCCC2c2nc(O)cc(C(C)C)n2)on1` (stereo not drawn), the cytotoxicity at 70.5 h is -5.06%.

Take `Cc1nc(Nc2ccccn2)cc(C2CCCN2Cc2ncc[nH]2)n1` (stereo not drawn): the cytotoxicity at 70.5 h was -6.09%.

In the case of `Cc1cc(-c2cccc(C(=O)O)c2)nc(C2CCN(C(C)C)CC2)n1`, the cytotoxicity at 70.5 h was -3.8%.

On to `CC(C)N1CCC(Cc2cc(-c3cccc(C(=O)O)c3)ncn2)CC1`, for which the cytotoxicity at 70.5 h is -4.63%.

Regarding `CC(C)C(=O)N1CCC(Cc2nccnc2Nc2ccccn2)CC1`, the cytotoxicity at 70.5 h was -5.25%.

`CC(=O)N1CCCC(c2ccc3sc(N)nc3n2)C1` (stereo not drawn): the cytotoxicity at 70.5 h is -8.18%.

As for `O=C(c1ccncc1)N1CCC(Cc2cnc3[nH]ccc3c2)CC1`, the cytotoxicity at 70.5 h was -5.49%.

In the case of `CNc1cccc(C2CCCN(C(=O)c3ccn(C)n3)C2)n1` (stereo not drawn), the cytotoxicity at 70.5 h came to 16.5%.

On to `O=C(Cc1ccc2c(c1)CCCC2)N[C@@H]1CC[C@@H](n2ccnc2)[C@@H]1O`, for which the cytotoxicity at 70.5 h was -3.88%.

As to `Cc1cc(-c2ccccc2C(=O)O)nc(C2CCCN(C)C2)n1` (stereo not drawn), the cytotoxicity at 70.5 h was -7.61%.

As for `Cc1ccccc1CNC(=O)c1ccccc1-n1cnc(CN)c1`, the cytotoxicity at 70.5 h was -0.745%.

As for `O=C(c1ccccn1)N1CCC(Cc2cnc3[nH]ccc3c2)CC1`, the cytotoxicity at 70.5 h is -6.64%.

As to `COc1ccccc1-c1nccnc1C1CCN(C(C)=O)CC1`, the cytotoxicity at 70.5 h is -6.14%.

Turning to `COCC(=O)N1CCOC(c2cccc(-c3cncnc3)n2)C1` (stereo not drawn), the cytotoxicity at 70.5 h is -5.56%.

Take `CC(C)N1CCCC(Cc2cncc(Br)c2)CC1` (stereo not drawn): the cytotoxicity at 70.5 h is -4.98%.

With `Cc1ccccc1-c1cncc(C2CCN(CCO)CC2)n1`, the cytotoxicity at 70.5 h was -8.45%.

For `CCc1cc(O)nc(C2CCCN2C(=O)COC)n1` (stereo not drawn), the cytotoxicity at 70.5 h was -5.06%.

`Cc1ncsc1-c1nnc(C2CCN(Cc3cccc(F)c3F)CC2)o1`: the cytotoxicity at 70.5 h turned out to be 38.7%.

Consider `CC(=O)N1CCCC1c1nc(C)no1` (stereo not drawn), for which the cytotoxicity at 70.5 h came to 15.6%.

On to `CC(C)CC(=O)N1CCCC1c1nccnc1Nc1ncccn1` (stereo not drawn), for which the cytotoxicity at 70.5 h was found to be 29.4%.

For the compound `CN(C)S(=O)(=O)N1CCC(c2cccc(Cc3ccccc3Cl)n2)CC1`, the cytotoxicity at 70.5 h was 18.2%.

In the case of `Cc1ccc(CC2CCCN(S(C)(=O)=O)C2)nc1` (stereo not drawn), the cytotoxicity at 70.5 h is -9.35%.

As to `CCC(=O)N1CCCC(c2ncc3c(n2)CCN(C)C3)C1` (stereo not drawn), the cytotoxicity at 70.5 h is -8.89%.

On to `CNc1cc(CNC(=O)c2ccncc2)nc(-c2ccncc2)n1`, for which the cytotoxicity at 70.5 h was -2.12%.

As for `CNc1cc(CNC(=O)c2ccnc(OC)c2)nc(-c2ccncc2)n1`, the cytotoxicity at 70.5 h is 11.8%.

Turning to `Cc1cc(C)nc(N2CCCC(c3cccc(-n4ccnc4)n3)C2)n1` (stereo not drawn), the cytotoxicity at 70.5 h was -5.86%.

Turning to `NC[C@H]1CC[C@H](C(NC(=O)CC2CCCCC2)c2ccccn2)CC1` (stereo partly drawn), the cytotoxicity at 70.5 h was -6.94%.

Take `Cc1cc(C)nc(N2CCC(c3cncc(-n4ccnc4)n3)CC2)n1`: the cytotoxicity at 70.5 h is -6.63%.

`CC(=O)N1CCC(c2cc(C(F)(F)F)nc3nccn23)CC1`: the cytotoxicity at 70.5 h was -8.29%.

Regarding `COCCN1CCCC1c1nccnc1Nc1nccs1` (stereo not drawn), the cytotoxicity at 70.5 h was -4.09%.

For `COCCN1CCCC1c1nccnc1Nc1ncc(C)s1` (stereo not drawn), the cytotoxicity at 70.5 h is -1.57%.

As for `Cc1ncncc1C(=O)N1CCCC(c2[nH]ncc2S(C)(=O)=O)C1` (stereo not drawn), the cytotoxicity at 70.5 h is -6.13%.

Regarding `CO[C@H]1CN(Cc2ccc(F)c(F)c2)C[C@@]12CCCO2`, the cytotoxicity at 70.5 h is -2.35%.

Turning to `C[C@]1(O)CCN(Cc2cccnc2)C[C@@H]1Oc1cccc(F)c1`, the cytotoxicity at 70.5 h was -2.19%.

Take `Cn1cccc1C(=O)N1CCC(O)(CN2CCc3ccccc3C2)C1` (stereo not drawn): the cytotoxicity at 70.5 h is -4.98%.

With `Cc1cc2cc(C(=O)N[C@@H]3CC[C@@H](N4CCNC(=O)C4)[C@@H]3O)ccc2o1`, the cytotoxicity at 70.5 h was -7.85%.

On to `CCN(CC)S(=O)(=O)NCC1Cc2ccccc2O1` (stereo not drawn), for which the cytotoxicity at 70.5 h is -3.76%.

Take `O=C(COCC1CCCO1)N(Cc1cccnc1)c1ccc(F)cc1` (stereo not drawn): the cytotoxicity at 70.5 h was 2.18%.

As for `Cn1nc(C2CCCN(Cc3ccc(F)cc3)C2)c2nccnc21` (stereo not drawn), the cytotoxicity at 70.5 h amounted to 5.25%.

With `Cn1nc(C2CCCN(Cc3cccs3)C2)c2nccnc21` (stereo not drawn), the cytotoxicity at 70.5 h was 3.16%.

For the compound `Cn1nc(C2CCCN(Cc3cc(F)ccc3F)C2)c2nccnc21` (stereo not drawn), the cytotoxicity at 70.5 h is -2.84%.

As for `Cc1nc2sccn2c1CN(CCCN(C)C)Cc1ccccn1`, the cytotoxicity at 70.5 h was -8.06%.

As for `Cc1ccc(CN(CCN(C)C)Cc2c(C)nc3sccn23)o1`, the cytotoxicity at 70.5 h worked out at 6.95%.
